≈ marks a conversion by molar mass, not a printed value.
Legend:
Enterococcus faecalis [1] = experiment: Antibacterial activity against Enterococcus faecalis RCMB 010068 after 24 hrs by twofold serial dilution technique; format: functional; conditions: RCMB 010068, 24 h
Streptococcus pneumoniae [2] = experiment: Antibacterial activity against Streptococcus pneumoniae RCMB 010010 after 24 hrs by twofold serial dilution technique; format: functional; conditions: RCMB 010010, 24 h
Enterococcus faecalis [3] = experiment: Antibacterial activity against Enterococcus faecalis RCMB 010068 at 100 umol/ml after 24 hrs by well diffusion assay; format: functional
Salmonella typhimurium [4] = experiment: Antibacterial activity against Salmonella typhimurium RCMB 010072 at 100 umol/ml after 24 hrs by well diffusion assay; format: functional, Salmonella enterica subsp. enterica serovar Typhimurium
Salmonella typhimurium [5] = experiment: Antibacterial activity against Salmonella typhimurium RCMB 010072 after 24 hrs by twofold serial dilution technique; format: functional, Salmonella enterica subsp. enterica serovar Typhimurium; conditions: Salmonella enterica, RCMB 010072, 24 h
Escherichia coli [6] = experiment: Antibacterial activity against Escherichia coli RCMB 010052 after 24 hrs by twofold serial dilution technique; format: functional; conditions: RCMB 010052, 24 h
Staphylococcus aureus [7] = experiment: Antibacterial activity against Staphylococcus aureus RCMB 010028 at 100 umol/ml after 24 hrs by well diffusion assay; format: functional
Escherichia coli [8] = experiment: Antibacterial activity against Escherichia coli RCMB 010052 at 100 umol/ml after 24 hrs by well diffusion assay; format: functional
Streptococcus pneumoniae [9] = experiment: Antibacterial activity against Streptococcus pneumoniae RCMB 010010 at 100 umol/ml after 24 hrs by well diffusion assay; format: functional
Staphylococcus aureus [10] = experiment: Antibacterial activity against Staphylococcus aureus RCMB 010028 after 24 hrs by twofold serial dilution technique; format: functional; conditions: RCMB 010028, 24 h

SMILES | MIC (Enterococcus faecalis [1]) | MIC (Streptococcus pneumoniae [2]) | diameter of the inhibition zone (DIZ) (Enterococcus faecalis [3]) | diameter of the inhibition zone (DIZ) (Salmonella typhimurium [4]) | MIC (Salmonella typhimurium [5]) | MIC (Escherichia coli [6]) | diameter of the inhibition zone (DIZ) (Staphylococcus aureus [7]) | diameter of the inhibition zone (DIZ) (Escherichia coli [8]) | diameter of the inhibition zone (DIZ) (Streptococcus pneumoniae [9]) | MIC (Staphylococcus aureus [10])
O=C(Cn1nc(-c2ccccc2)c2ccccc2c1=O)Nc1ccc(S(=O)(=O)Nc2ncccn2)cc1 | 1.56 mM (≈ 800 µg/mL) | 0.39 mM (≈ 200 µg/mL) | 20.3 mm | 18.2 mm | 6.25 mM (≈ 3200 µg/mL) | 25 mM (≈ 12800 µg/mL) | 22.3 mm | 16.1 mm | 22.3 mm | 0.39 mM (≈ 200 µg/mL)
NS(=O)(=O)c1ccc(NC(=O)Cn2nc(-c3ccccc3)c3ccccc3c2=O)cc1 | 25 mM (≈ 10900 µg/mL) | 12.5 mM (≈ 5430 µg/mL) | 15.9 mm | 16.9 mm | 12.5 mM (≈ 5430 µg/mL) | 12.5 mM (≈ 5430 µg/mL) | 19.4 mm | 16.8 mm | 16.8 mm | 1.56 mM (≈ 678 µg/mL)
NS(=O)(=O)c1ccc(NC(=O)Cn2nc(Cc3ccccc3)c3ccccc3c2=O)cc1 | 50 mM (≈ 22400 µg/mL) | 25 mM (≈ 11200 µg/mL) | 15.3 mm | 18.24 mm | 3.12 mM (≈ 1400 µg/mL) | 6.25 mM (≈ 2800 µg/mL) | 21 mm | 17.6 mm | 16.2 mm | 0.78 mM (≈ 350 µg/mL)
COc1ccc(Cc2nn(CC(=O)Nc3ccc(S(N)(=O)=O)cc3)c(=O)c3ccccc23)cc1 | 25 mM (≈ 12000 µg/mL) | 6.25 mM (≈ 2990 µg/mL) | 16.2 mm | 20 mm | 1.56 mM (≈ 747 µg/mL) | 3.12 mM (≈ 1490 µg/mL) | 22 mm | 19.6 mm | 18.2 mm | 0.39 mM (≈ 187 µg/mL)
COc1ccc(Cc2nn(CCC(=O)Nc3ccc(S(N)(=O)=O)cc3)c(=O)c3ccccc23)cc1 | 12.5 mM (≈ 6160 µg/mL) | 6.25 mM (≈ 3080 µg/mL) | 16.7 mm | 21 mm | 1.56 mM (≈ 768 µg/mL) | 3.12 mM (≈ 1540 µg/mL) | 22.3 mm | 19.9 mm | 18.3 mm | 0.39 mM (≈ 192 µg/mL)
O=C(Cn1nc(-c2ccccc2)c2ccccc2c1=O)Nc1ccc(S(=O)(=O)Nc2nccs2)cc1 | 25 mM (≈ 12900 µg/mL) | 1.56 mM (≈ 807 µg/mL) | 17 mm | 21 mm | 0.78 mM (≈ 404 µg/mL) | 25 mM (≈ 12900 µg/mL) | 18.3 mm | 16.3 mm | 20.3 mm | 12.5 mM (≈ 6470 µg/mL)
O=C(Cn1nc(-c2ccc(Cl)cc2)c2ccccc2c1=O)Nc1ccc(S(=O)(=O)Nc2nccs2)cc1 | 25 mM (≈ 13800 µg/mL) | 1.56 mM (≈ 861 µg/mL) | 17.2 mm | 21.4 mm | 0.78 mM (≈ 431 µg/mL) | 0.39 mM (≈ 215 µg/mL) | 19.9 mm | 22.2 mm | 20.2 mm | 3.12 mM (≈ 1720 µg/mL)
COc1ccc(Cc2nn(CC(=O)Nc3ccc(S(=O)(=O)Nc4ncccn4)cc3)c(=O)c3ccccc23)cc1 | 50 mM (≈ 27800 µg/mL) | 25 mM (≈ 13900 µg/mL) | 15.2 mm | 19.3 mm | 3.12 mM (≈ 1740 µg/mL) | 25 mM (≈ 13900 µg/mL) | 18.6 mm | 16.9 mm | 16.3 mm | 6.25 mM (≈ 3480 µg/mL)
COc1ccc(Cc2nn(CCC(=O)Nc3ccc(S(=O)(=O)Nc4ncccn4)cc3)c(=O)c3ccccc23)cc1 | 25 mM (≈ 14300 µg/mL) | 50 mM (≈ 28500 µg/mL) | 17.2 mm | 17.4 mm | 25 mM (≈ 14300 µg/mL) | 50 mM (≈ 28500 µg/mL) | 19.8 mm | 16.2 mm | 15.7 mm | 3.12 mM (≈ 1780 µg/mL)
Nc1ccc(S(=O)(=O)Nc2ncccn2)cc1 [SULFADIAZINE] | 100 mM (≈ 25000 µg/mL) | 100 mM (≈ 25000 µg/mL) | 13.7 mm | 15 mm | 50 mM (≈ 12500 µg/mL) | 100 mM (≈ 25000 µg/mL) | 18.3 mm | 14.2 mm | 14.2 mm | 6.25 mM (≈ 1560 µg/mL)
Nc1ccc(S(N)(=O)=O)cc1 [SULFANILAMIDE] | 100 mM (≈ 17200 µg/mL) | 25 mM (≈ 4310 µg/mL) | 14.2 mm | 14.2 mm | 100 mM (≈ 17200 µg/mL) | 25 mM (≈ 4310 µg/mL) | 16.8 mm | 15.8 mm | 15.8 mm | 12.5 mM (≈ 2150 µg/mL)
Nc1ccc(S(=O)(=O)Nc2nccs2)cc1 [SULFATHIAZOLE] | 50 mM (≈ 12800 µg/mL) | 25 mM (≈ 6380 µg/mL) | 14.9 mm | 17.2 mm | 12.5 mM (≈ 3190 µg/mL) | 100 mM (≈ 25500 µg/mL) | 15 mm | 13.8 mm | 15.8 mm | 50 mM (≈ 12800 µg/mL)

From ChEMBL document CHEMBL3351668, “Improvement of antibacterial activity of some sulfa drugs through linkage to certain phthalazin-1(2H)-one scaffolds” (2014)
